Data taken from patent US6844294B2, “Synergistic herbicidal compositions comprising herbicides from the benzoylcyclohexanedione group for use in rice crops” (Aventis CropScience GmbH, priority 2001, dated 2005).

Tests used:
Format in all cases: in vivo
SAGPY Sagittaria pygmaea = test: Herbicidal action on SAGPY, visual scoring on a percentage scale vs untreated control
Source text: (§1) Seeds or root segments of monocotyledonous and dicotyledonous harmful plants are placed in sandy loam in pots and covered with soil. In the case of spray application, the compositions formulated as concentrated aqueous solutions, wettable powders or emulsion concentrates, are then applied to the surface of the covering soil as aqueous solution, suspension or emulsion, respectively, at an application rate of 600 to 800 l of water per ha (converted) in a variety of dosages. Immediately to a few days after the application, the test containers are flooded with water up to a depth of 30 mm above the soil surface. In the case of submerged application, in contrast, the soil in the closed test container is already covered with paddy water up to a depth of 30 mm at the time of application. Here, the formulated active ingredients are added directly to the paddy water, for example in the form of granules. After the treatment, the pots are placed in a greenhouse and kept under good growth conditions for the weeds. […] When using suitable low dosages, the values observed in the experiments show an effect of the combinations which exceed the expected values calculated using Colby's formula.
(§2) The herbicidal efficacy of the active ingredients or active ingredient mixtures was scored visually by comparing the treated variants with untreated control variants. The damage and development of all aerial plant parts was recorded. […]
Seeds or root segments of monocotyledonous and dicotyledonous weeds are placed in sandy loam in pots, covered with soil and grown in the greenhouse under good growth conditions (temperature, atmospheric humidity, water supply). […] After the experimental plants have remained in the greenhouse under optimal growth conditions for a further 3 to 4 weeks, the effect of the preparations is scored visually in comparison with untreated controls. […] When using suitable low dosages, the values observed in the experiments show an effect of the combinations which exceed the expected values calculated using Colby's formula. […]

SCPJU Scirpus juncoides = test: Herbicidal action on SCPJU, visual scoring on a percentage scale vs untreated control
Source text: (§3) Seeds or root segments of monocotyledonous and dicotyledonous harmful plants are placed in sandy loam in pots and covered with soil. In the case of spray application, the compositions formulated as concentrated aqueous solutions, wettable powders or emulsion concentrates, are then applied to the surface of the covering soil as aqueous solution, suspension or emulsion, respectively, at an application rate of 600 to 800 l of water per ha (converted) in a variety of dosages. Immediately to a few days after the application, the test containers are flooded with water up to a depth of 30 mm above the soil surface. In the case of submerged application, in contrast, the soil in the closed test container is already covered with paddy water up to a depth of 30 mm at the time of application. Here, the formulated active ingredients are added directly to the paddy water, for example in the form of granules. After the treatment, the pots are placed in a greenhouse and kept under good growth conditions for the weeds. Visual scoring of the plant damage or the adverse effect on the emergence is carried out after the test plants have emerged after an experimental period of 3 to 4 weeks in comparison with untreated controls. […] Frequently, effects of the combinations according to the invention are observed which exceed the formal total of the effects when the herbicides are applied individually. When using suitable low dosages, the values observed in the experiments show an effect of the combinations which exceed the expected values calculated using Colby's formula.
(§4) The herbicidal efficacy of the active ingredients or active ingredient mixtures was scored visually by comparing the treated variants with untreated control variants. The damage and development of all aerial plant parts was recorded. Scoring was done on a percentage scale (100% action=all plants dead; 50% action=50% of the plants and green plant parts dead; 0% action=no discernible action=like untreated control plot).
(§5) Seeds or root segments of monocotyledonous and dicotyledonous weeds are placed in sandy loam in pots, covered with soil and grown in the greenhouse under good growth conditions (temperature, atmospheric humidity, water supply). Approximately three weeks after planting, the experimental plants are treated with the compositions according to the invention. In the case of spray application, the compositions according to the invention, which are formulated as wettable powders or emulsion concentrates, are sprayed onto the green plant parts in various dosages with an application rate of 600 to 800 l of water per ha (converted). Immediately to a few days after the application, the test containers are flooded with water up to a depth of 30 mm above the soil surface. In the case of submerged application, in contrast, the soil in the closed test container is already covered with paddy water up to a depth of 30 mm at the time of application. Here, the formulated active ingredients are added directly to the paddy water. After the experimental plants have remained in the greenhouse under optimal growth conditions for a further 3 to 4 weeks, the effect of the preparations is scored visually in comparison with untreated controls. The compositions according to the invention also have an outstanding herbicidal action against a broad spectrum of economically important grass weeds and broad-leaved weeds when applied post-emergence. Frequently, effects of the combinations according to the invention are observed which exceed the formal total of the effects when the herbicides are applied individually. When using suitable low dosages, the values observed in the experiments show an effect of the combinations which exceed the expected values calculated using Colby's formula.
Crop plants were grown in the open on plots under natural field conditions, seeds or root segments of typical harmful plants having been planted and the natural weed flora being exploited. […]

SEBEX Sesbania exaltata = test: Herbicidal action on SEBEX, visual scoring on a percentage scale vs untreated control
Source text: as §3, §4
as §5, with “The compositions according to the invention also have an outstanding herbicidal action against a broad spectrum of economically important grass weeds and broad-leaved weeds when applied post-emergence. Frequently, effects of the combinations according to the invention are observed which exceed the formal total of the effects when the herbicides are applied individually.” left out, “formula. […]” for “formula.”

CYPSE = test: Herbicidal action on CYPSE, visual scoring on a percentage scale vs untreated control
MOOVA = test: Herbicidal action on MOOVA, visual scoring on a percentage scale vs untreated control
Source text: as §1, with “granules.” for “granules. After the treatment, the pots are placed in a greenhouse and kept under good growth conditions for the weeds.”
as §2

CHEAL = test: Herbicidal action on CHEAL, visual scoring on a percentage scale vs untreated control
Source text: as §1, with “granules.” for “granules. After the treatment, the pots are placed in a greenhouse and kept under good growth conditions for the weeds.”
as §2

PHBPU = test: Herbicidal action on PHBPU, visual scoring on a percentage scale vs untreated control
Source text: as §3, §4
as §5, with “The compositions according to the invention also have an outstanding herbicidal action against a broad spectrum of economically important grass weeds and broad-leaved weeds when applied post-emergence. Frequently, effects of the combinations according to the invention are observed which exceed the formal total of the effects when the herbicides are applied individually.” left out, “formula. […]” for “formula.”

ECHOR = test: Herbicidal action on ECHOR, visual scoring on a percentage scale vs untreated control; conditions: Example B.XII, dosage 25 g ai/ha
Source text: as §1, with “granules.” for “granules. After the treatment, the pots are placed in a greenhouse and kept under good growth conditions for the weeds.”
as §2

ECHCG = test: Herbicidal action on ECHCG, visual scoring on a percentage scale vs untreated control
Source text: as §1, with “granules.” for “granules. After the treatment, the pots are placed in a greenhouse and kept under good growth conditions for the weeds.”
as §2

[1] = Example B.IX, dosage 187 g ai/ha
[2] = Example B.X, dosage 1.8 g ai/ha
[3] = Example B.XIII, dosage 22 g ai/ha
[4] = Example B.IV, dosage 20 g ai/ha
[5] = Example B.XV, dosage 4.3 g ai/ha

CCN(CC)C(=O)SCc1ccc(Cl)cc1 [Compound B1.2, thiobencarb]
found (herbicidal action) (SAGPY Sagittaria pygmaea; [1]): 0%
found (herbicidal action) (SCPJU Scirpus juncoides; [1]): 20%

COc1cc(OC)nc(NC(=O)NS(=O)(=O)Cc2ccccc2C(=O)O)n1 [Compound B2.1, bensulfuron]
found (herbicidal action) (SEBEX Sesbania exaltata; Example B.I, dosage 20 g ai/ha): 45%
found (herbicidal action) (CYPSE; Example B.I, dosage 10 g ai/ha): 68%

COc1cc(OC)nc(Oc2cccc(Oc3nc(OC)cc(OC)n3)c2C(=O)O)n1 [Compound B2.2, bispyribac-sodium]
found (herbicidal action) (MOOVA; [2]): 0%
found (herbicidal action) (SCPJU Scirpus juncoides; [2]): 0%

COC(=O)c1c(Cl)nn(C)c1S(=O)(=O)NC(=O)Nc1nc(OC)cc(OC)n1 [Compound B2.5, halosulfuron-methyl]
found (herbicidal action) (SAGPY Sagittaria pygmaea; Example B.XI, dosage 7.5 g ai/ha): 0%
found (herbicidal action) (SCPJU Scirpus juncoides; Example B.XI, dosage 15 g ai/ha): 0%

CCc1cnc(C2=NC(C)(C(C)C)C(=O)N2)c(C(=O)O)c1 (stereo not shown) [Compound B2.9, imazethapyr]
found (herbicidal action) (CHEAL; Example B.II, dosage 10 g ai/ha): 5%
found (herbicidal action) (PHBPU; Example B.II, dosage 5 g ai/ha): 5%

COc1cc(OC)n2nc(S(=O)(=O)Nc3c(Cl)ccc(C)c3Cl)nc2n1 [Compound B2.13, metosulam]
found (herbicidal action) (SEBEX Sesbania exaltata; B.III, dosage 2.5 g ai/ha): 30%
found (herbicidal action) (PHBPU; B.III, dosage 2.5 g ai/ha): 85%

CC1(C)CON(Cc2ccccc2Cl)C1=O [Compound B3.1, clomazone]
found (herbicidal action) (ECHOR): 30%
found (herbicidal action) (CYPSE; Example B.XII, dosage 50 g ai/ha): 0%

CCCCOC(=O)[C@@H](C)Oc1ccc(Oc2ccc(C#N)cc2F)cc1 [Compound B4.1, cyhalofop-butyl]
found (herbicidal action) (CYPSE; [3]): 0%
found (herbicidal action) (SCPJU Scirpus juncoides; [3]): 0%

CCOC(=O)C(C)Oc1ccc(Oc2nc3ccc(Cl)cc3o2)cc1 (stereo not shown) [Compound B4.2, fenoxaprop-ethyl]
found (herbicidal action) (SEBEX Sesbania exaltata; [4]): 0%
found (herbicidal action) (PHBPU; [4]): 0%

CN(C(=O)COc1nc2ccccc2s1)c1ccccc1 [Compound B5.1, mefenacet]
found (herbicidal action) (SAGPY Sagittaria pygmaea; Example B.XIV, dosage 63 g ai/ha): 0%
found (herbicidal action) (SCPJU Scirpus juncoides; Example B.XIV, dosage 125 g ai/ha): 0%

CC1=C(c2ccccc2)C(=O)N(C(C)(C)c2cc(Cl)cc(Cl)c2)CO1 [Compound B5.2, oxaziclomefone]
found (herbicidal action) (CYPSE; [5]): 0%
found (herbicidal action) (SCPJU Scirpus juncoides; [5]): 0%

CCC(CC)Nc1c([N+](=O)[O-])cc(C)c(C)c1[N+](=O)[O-] [Compound B7.1, pendimethalin]
found (herbicidal action) (PHBPU; Example B.V, dosage 100 g ai/ha): 75%
found (herbicidal action) (ECHCG; Example B.V, dosage 200 g ai/ha): 78%

CCC(=O)Nc1ccc(Cl)c(Cl)c1 [Compound B8.1, propanil]
found (herbicidal action) (MOOVA; Example B.XVI, dosage 187 g ai/ha): 0%
found (herbicidal action) (SCPJU Scirpus juncoides; Example B.XVI, dosage 375 g ai/ha): 0%

O=C(O)c1c(Cl)ccc2cc(Cl)cnc12 [Compound B9.1, quinclorac]
found (herbicidal action) (SEBEX Sesbania exaltata; Example B.VI, dosage 5 g ai/ha): 0%
found (herbicidal action) (PHBPU; Example B.VI, dosage 10 g ai/ha): 78%

CP(=O)(O)CCC(N)C(=O)O (stereo not shown) [Compound B10.1, glufosinate]
found (herbicidal action) (SEBEX Sesbania exaltata; Example B.VII, dosage 100 g ai/ha): 5%
found (herbicidal action) (ECHCG; Example B.VII, dosage 50 g ai/ha): 0%

O=C(O)CNCP(=O)(O)O [Compound B11.1, glyphosate]
found (herbicidal action) (CHEAL; Example B.VIII, dosage 100 g ai/ha): 0%
